Where two headings read alike, the source gives them in different places. One block for each compound: values may come before it.
Tests used:
[1] = system: bradykinin-induced calcium signaling; test: Calcium mobilization in response to bradykinin (specificity control); format: cell-based, human; parameters: key: +: pulse observed; −: no pulse observed; n.s.: non-specific signal; settings: CCR1-293 or THP-1 cells loaded with INDO-1; compound 10 to 20 μM; bradykinin added after MIP-1α
Procedure: (§1) To detect the release of intracellular stores of calcium, cultured cells were incubated with 3 μM of INDO-1AM dye (Molecular Probes; Eugene, Oreg.) in cell media for 45 minutes at room temperature and washed with phosphate buffered saline (PBS). After INDO-1AM loading, the cells were resuspended in flux buffer (Hank's balanced salt solution (HBSS) and 1% FBS). Calcium mobilization was measured using a Photon Technology International spectrophotometer (Photon Technology International; New Jersey) with excitation at 350 nm and dual simultaneous recording of fluorescence emission at 400 nm and 490 nm. Relative intracellular calcium levels were expressed as the 400 nm/490 nm emission ratio. Experiments were performed at 37° C. with constant mixing in cuvettes each containing 10^6 cells in 2 ml of flux buffer. The chemokine ligands may be used over a range from 1 to 100 nM. The emission ratio was plotted over time (typically 2-3 minutes). Candidate ligand blocking compounds (10 to 20 μM) were added at 10 seconds, followed by chemokines at 60 seconds (MIP-1α; R&D Systems; Minneapolis, Minn.) and control […] (bradykinin; ICN Pharmaceutical, Costa Mesa, Calif.) at 150 seconds. In some experiments, candidate blocking compounds and cells were added simultaneously, and MIP-1α was added 40 seconds later.
(§2) Calcium ion release in response to MIP-1α binding was measured using the cell permeable INDO-1/AM indicator, which fluoresces in the presence of free, but not chelated, calcium ions. CCR1-293 or THP-1 cells were loaded with INDO-1 and assayed for calcium release in response to MIP-1α addition. To control for specificity, a second, non-CCR1 binding […], bradykinin, was added, which also signals via a seven transmembrane receptor. Without compound, a pulse of fluorescent signal will be seen upon MIP-1α addition.

CCR1 [2] = molecular target: T1, CCR1 (Homo sapiens, UniProt P32246); test: Calcium mobilization in response to MIP-1α (INDO-1); format: cell-based; parameters: expressed in transfected cells; host or cells: HEK 293 (CCR1-293), pIRESpuro vector; key to MIP-1α: calcium pulse: +: pulse observed; −: no pulse observed; n.s.: non-specific signal; settings: for MIP-1α: calcium pulse: CCR1-293 or THP-1 cells loaded with INDO-1, compound 10 to 20 μM added before MIP-1α; for Comments (inhibition of calcium signaling) / Inhibition of CCR1 calcium signaling, result in words: Table 2; for Inhibition of CCR1 calcium signaling, result in words: MIP-1α versus bradykinin
T1 sequence (P32246 1-355): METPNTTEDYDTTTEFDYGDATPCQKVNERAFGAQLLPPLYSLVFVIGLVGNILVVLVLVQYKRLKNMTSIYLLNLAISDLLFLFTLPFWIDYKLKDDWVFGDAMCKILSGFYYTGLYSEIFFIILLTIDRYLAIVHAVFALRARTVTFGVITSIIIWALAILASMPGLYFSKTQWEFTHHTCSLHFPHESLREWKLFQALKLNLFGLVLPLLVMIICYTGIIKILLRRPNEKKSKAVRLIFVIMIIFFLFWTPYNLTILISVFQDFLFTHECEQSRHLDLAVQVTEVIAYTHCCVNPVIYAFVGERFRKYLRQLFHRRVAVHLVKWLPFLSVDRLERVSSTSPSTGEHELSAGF
Procedure: as §1
CCR1 is a seven transmembrane, G-protein linked receptor. A hallmark of signaling cascades induced by the ligation of such receptors is the pulse-like release of calcium ions from intracellular stores. Calcium mobilization assays were performed to determine if the candidate MIP-1α inhibitory compounds were able to also block CCR1 signaling. To be useful, candidate compounds able to inhibit specifically ligand binding and signaling were desired.
as §2

CCR1 [3] = molecular target: T1, CCR1; test: Inhibition of CCR1 ligand binding (125I labeled MIP-1α binding to CCR1 expressing cells); parameters: expressed in transfected cells; host or cells: NSO murine myeloma (CCR1-NSO) or HEK 293 (CCR1-293)
Procedure: CCR1 expressing cells were centrifuged and resuspended in assay buffer (20 mM HEPES pH 7.1, 140 mM NaCl, 1 mM CaCl2, 5 mM MgCl2, and with 0.2% bovine serum albumin) to a concentration of 5.6×10^6 cells/ml (CCR1-NSO) or 2.2×10^6 cells/ml ([…].). Screening assays were set up as follows. First, 0.09 ml of cells (5×10^5 CCR1-NSO cells/well or 2×10^5 CCR1-293 cells/well) was added to the assay plates containing the compounds, giving a final concentration of ˜2-10 μM each compound. Then 0.09 ml of ^125I labeled MIP-1α (obtained from Amersham; Piscataway, N.J.) diluted in assay buffer to a final concentration of ˜50 pM, yielding ˜30,000 cpm per well, was added, the plates sealed and incubated for approximately 3 hours at 4° C. on a shaker platform. Reactions were aspirated onto GF/B glass filters pre-soaked in 0.3% polyethyleneimmine (PEI) solution, on a vacuum cell harvester (Packard Instruments; Meriden, Conn.). Scintillation fluid (50 μl; Microscint 20, Packard Instruments) was added to each well, the plates were sealed and radioactivity measured in a Top Count scintillation counter (Packard Instruments). Control wells containing either diluent only (for total counts) or excess MIP-1α or MIP-1β ([…], for non-specific binding) were used to calculate the percent of total inhibition for each set of compounds. After testing the CLIP plates, wells with 40% or greater inhibition were confirmed. If confirmed, the individual compounds of the CLIP's were tested for reactivity (deconvolution step). IC50 values are those concentrations required to reduce the binding of labeled MIP-1α to the receptor by 50%.
To identify small organic molecules that prevent the receptor CCR1 from binding ligand, an assay was employed that detected radioactive ligand (MIP-1α) binding to cells expressing exogenous CCR1 on the cell surface.
A NSO murine myeloma cell line (CCR1-NSO) and a human embryonic kidney (HEK) carcinoma cell line (CCR1-293) were constructed that constitutively expressed human CCR1 on the cell surface; these cells lack other chemokine receptors that bind MIP-1α. Equal numbers of cells were added to each well in the CLIP plate, where each pool contained 10 candidate organic compounds. The cells were then incubated with radio labeled MIP-1α. Unbound ligand was removed by washing the cells, and bound ligand was determined by quantifying radioactive counts. Cells that were incubated without any organic compound gave total counts; non-specific binding was determined by incubating the cells with unlabeled ligand and labeled ligand. Percent inhibition was determined by the equation:
% inhibition=1−[(sample cpm)−(nonspecific cpm)]/[(total cpm)−(nonspecific cpm)]×100
To ascertain a candidate compound's affinity for CCR1 as well as confirm its ability to inhibit ligand binding, inhibitory activity was titered over 1×10^−8 to 1×10^−4 M range of compound concentration. The assay was essentially the same as for the CLIP screens, except the amount of compound was varied; cell number and ligand concentration were held constant. Only those compounds that were commercially available at the time of the experiments were titered. Of the 22 candidates identified, the following 16 were subjected to dose response experiments: CCX-3343, CCX-1057, CCX-1307, CCX-1513, CCX-238, CCX-3345, CCX-3493, CCX-4425, CCX-4462, CCX-4682, CCX-469, CCX-5062, CCX-5119, CCX-541, CCX-6019 and CCX-6530.

[4] = CCR1-293 cells, compound titered 1×10^−8 to 1×10^−4 M, * = partially blocked MIP-1α binding at the highest tested concentration, read-out: IC50 (Inhibition Constant; μM), CCR1-MIP-1α binding
[5] = CCR1-NSO cells, compound titered 1×10^−8 to 1×10^−4 M, read-out: IC50 (Inhibition Constant; μM), CCR1-MIP-1α binding
[6] = compound titered 1×10^−8 to 1×10^−4 M, cells not given
[7] = dose response, cells not given, read-out: CCR1 affinity (MIP-1α binding)

SMILES: O=C(c1ccc(Cl)c(Cl)c1)C12CN3CN(CN(C3)C1)C2 [CCX-1307]
IC50 (CCR1 [3]; [4]): 2 µM

SMILES: CC[n+]1c(/C=C/C=C2/N(C)c3ccccc3C2(C)C)ccc2c1c1cc(Br)ccc1n2C [CCX-2324]
IC50 (CCR1 [3]; [4]): 2 µM

SMILES: COC(=O)c1cc(C#N)c(Sc2c([N+](=O)[O-])cc(C(F)(F)F)cc2[N+](=O)[O-])nc1C(OC)OC [CCX-5119]
IC50 (CCR1 [3]; read-out: IC50 (Inhibition Constant; μM), CCR1-MIP-1α binding, CCR1-293 cells, compound titered 1×10^−8 to 1×10^−4 M, * = partially blocked MIP-1α binding at the highest tested concentration): 45 µM

SMILES: Cc1ccc(C(/C(Cl)=C(\Cl)C(=O)O)c2ccc(C)cc2C)c(C)c1 [CCX-541]
Bradykinin: calcium pulse [1]: n.s.
MIP-1α: calcium pulse (CCR1 [2]): n.s.
Comments (inhibition of calcium signaling) (CCR1 [2]): Calcium levels increased non-
Inhibition of CCR1 calcium signaling, result in words (CCR1 [2]): non-specific effects on calcium levels
IC50 (CCR1 [3]; [5]): 0.4 µM

SMILES: c1ccc(C2C3=C(Nc4nc5ccccc5n42)c2ccccc2CCC3)cc1 (stereo not shown) [CCX-1080]
IC50 (CCR1 [3]; [4]): 2 µM

SMILES: CC1CCC(C(C)C)C(OCC(O)CN2CCN(c3ccc(F)cc3)CC2)C1 (stereo not shown) [CCX-3343]
Dose-response inhibition of MIP-1α binding, result in words (CCR1 [3]; [6]): failed to completely inhibit MIP-1α binding at the highest tested concentration
IC50 (CCR1 [3]; [7]): ~2 µM

SMILES: CC1CCC(C(C)C)C(OCC(O)CN2CCC(Cc3ccccc3)CC2)C1 (stereo not shown) [CCX-3345]
Dose-response inhibition of MIP-1α binding, result in words (CCR1 [3]; [6]): failed to completely inhibit MIP-1α binding at the highest tested concentration
IC50 (CCR1 [3]; [7]): ~2 µM

SMILES: CC(=O)C1=C(O)C(=O)N(c2ccc(Br)cc2)C1c1ccc(F)cc1 (stereo not shown) [CCX-5062]
Dose-response inhibition of MIP-1α binding, result in words (CCR1 [3]; [6]): failed to completely inhibit MIP-1α binding at the highest tested concentration
IC50 (CCR1 [3]; [7]): ~2 µM

More lines, main results first:

MIP-1α: calcium pulse (CCR1 [2]): −
Comments (inhibition of calcium signaling) (CCR1 [2]): Clear and specific
IC50 (CCR1 [3]; [4]): 2 µM
IC50 (CCR1 [3]; [5]): 0.6 µM
SMILES: O=C1NCCCCC1N(Cc1ccccc1F)C(=O)C(c1ccccc1)c1ccccc1 (stereo not shown) [CCX-469]
Bradykinin: calcium pulse [1]: +
Inhibition of CCR1 calcium signaling, result in words (CCR1 [2]): able to significantly and specifically inhibit signaling from CCR1

IC50 (CCR1 [3]; [5]): 44 µM
SMILES: O=C(O)C1=C(Sc2ccc(Cl)cc2)CSC1 [CCX-4682]

IC50 (CCR1 [3]; [5]): 0.36 µM
SMILES: O=C(O)c1ccc2c(c1)C1C=CCC1C(C(=O)O)N2 (stereo not shown) [CCX-1959]

IC50 (CCR1 [3]; [5]): 25 µM
SMILES: O=C(NN(Cc1c(F)cccc1Cl)c1ccccc1)C(Cl)(Cl)Cl [CCX-6019]

IC50 (CCR1 [3]; [4]): 2 µM
SMILES: O=C(C[n+]1ccc(-c2ccccc2)cc1)Nc1ccc([N+](=O)[O-])cc1 [CCX-1057]

MIP-1α: calcium pulse (CCR1 [2]): +
Comments (inhibition of calcium signaling) (CCR1 [2]): No inhibition.
IC50 (CCR1 [3]; [4]): 18 µM
IC50 (CCR1 [3]; [5]): 1.7 µM
SMILES: S=c1[nH]nc(-c2ccc(Cl)cc2)n1-c1cccnc1 [CCX-3493]
Bradykinin: calcium pulse [1]: +
Inhibition of CCR1 calcium signaling, result in words (CCR1 [2]): did not affect signaling, whether MIP-1α or bradykinin induced

— patent US6727241B2, “Anti-inflammatory compositions and methods of use” (Chemocentryx, priority 2002, dated 2004)
